biological target: T1, human Mas receptor (Homo sapiens, UniProt P04201); assay: Mas receptor IP3 assay (inverse agonist assay); type: cell-based; conditions: HEK293 cells over-expressing human Mas receptor; average from several experiments
T1 construct: expressed in transfected cells
T1 sequence (P04201 1-325): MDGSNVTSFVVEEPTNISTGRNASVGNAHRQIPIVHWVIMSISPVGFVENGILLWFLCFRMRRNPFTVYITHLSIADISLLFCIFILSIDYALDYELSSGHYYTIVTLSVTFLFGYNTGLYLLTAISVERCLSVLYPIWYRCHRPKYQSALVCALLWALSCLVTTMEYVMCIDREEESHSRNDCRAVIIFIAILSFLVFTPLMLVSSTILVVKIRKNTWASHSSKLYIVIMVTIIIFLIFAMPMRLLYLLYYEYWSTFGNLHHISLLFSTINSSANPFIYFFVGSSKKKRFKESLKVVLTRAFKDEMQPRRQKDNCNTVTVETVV
Procedure: The Mas receptor IP3 assay was performed using a mammalian cell line (HEK293) which was transfected with a plasmid containing the human Mas receptor and selected for stable expression of the receptor. For the inverse agonist assay, higher levels of Mas receptor constitutive activity were desired. To achieve this, Mas receptor expression levels were increased by transiently transfecting the same Mas receptor stable cell line with additional human Mas receptor plasmid DNA following standard procedures. These cells were used in the Mas receptor IP3 assay approximately 24 hours post-transfection.
Cells were split into 96-well plates (50,000 cells/well) and allowed to attach for a period of 6 hours. The growth medium was then replaced with medium supplemented with 4 μCi/ml [^3H]myo-inositol (100 μl; Perkin Elmer Life Sciences) and the cells were allowed to incubate for approximately 20 hours. Test compounds were serially diluted in inositol-free media containing 10 mM LiCl. The media in the plates was removed by aspiration, replaced with these test compound solutions and incubated at 37° C. for 1 hour. Following this incubation, the media was removed by aspiration and replaced with buffer containing 0.1M formic acid. The plates were then frozen overnight at −80° C. to achieve complete cell lysis.
The following day, the assay plates were thawed at room temperature. The thawed contents were then transfered to 96-well filter plates (Millipore, Multiscreen) pre-loaded with resin (Biorad, AG1-X8 100-200 mesh, formate form). The plate was filtered using a vacuum manifold and the resin was washed multiple times with water. An elution buffer was then applied (200 μl, 0.2M Ammonium formate/0.1M formic acid) and the resulting eluent was collected, under vacuum, in a 96-well collection plate. Aliquots of the eluent (80 μl) were transferred to filter plates (Whatman, Unifilter GF/C) and dried in a 45° C. oven overnight. Dried plates were counted on a scintillation counter following the addition of an appropriate scintillant (Perkin Elmer Life Sciences, Optiphase Supermix or Hi-Safe 3).

Compound	IC50
C=CCN1CCC2(CC1)CN(C(=O)c1cccnc1Cl)c1ccc(F)cc12 [Compound 93, 1′-(allyl)-1,2-dihydro-5-fluoro-1-(2-chloro-pyridine-3-carbonyl)-spiro[3H-indole-3,4′-piperidine]]	841 nM
C=CCN1CCC2(CC1)CN(S(=O)(=O)c1cc(Cl)c(Cl)s1)c1ccc(F)cc12 [Compound 210, 1′-(allyl)-1,2-dihydro-5-fluoro-1-(4,5-dichloro-thiophene-2-sulfonyl)-spiro[3H-indole-3,4′-piperidine]]	890 nM
O=C(N1CC2(CCN(CC3CC3)CC2)c2cc(F)ccc21)C12CC3CC(CC(C3)C1)C2 [Compound 168, 1′-(cyclopropylmethyl)-1,2-dihydro-5-fluoro-1-(adamantane-1-carbonyl)-spiro[3H-indole-3,4′-piperidine]]	502 nM
C=CCN1CCC2(CC1)CN(C(=O)c1ccc([N+](=O)[O-])cc1)c1ccc(F)cc12 [Compound 83, 1′-(allyl)-1,2-dihydro-5-fluoro-1-(4-nitro-benzoyl)-spiro[3H-indole-3,4′-piperidine]]	757 nM
C=CCN1CCC2(CC1)CN(C(=O)c1cccc(C(Cl)Cl)c1)c1ccccc12 [Compound 102, 1′-(allyl)-1,2-dihydro-1-(3-dichloromethyl-benzoyl)-spiro[3H-indole-3,4′-piperidine]]	939 nM
C=CCN1CCC2(CC1)CN(S(=O)(=O)c1ccc(Cl)s1)c1ccc(F)cc12 [Compound 214, 1′-(allyl)-1,2-dihydro-5-fluoro-1-(5-chloro-thiophene-2-sulfonyl)-spiro[3H-indole-3,4′-piperidine]]	455 nM
CN1CCC2(CC1)CN(C(=O)c1cccc(C(Cl)Cl)c1)c1ccc(F)cc12 [Compound 199, 1′-(methyl)-1,2-dihydro-5-fluoro-1-(3-dichloromethyl-benzoyl)-spiro[3H-indole-3,4′-piperidine]]	382 nM
O=C(c1cccc2ccccc12)N1CC2(CCN(CC3CC3)CC2)c2cc(F)ccc21 [Compound 159, 1′-(cyclopropylmethyl)-1,2-dihydro-5-fluoro-1-(naphthylene-1-carbonyl)-spiro[3H-indole-3,4′-piperidine]]	505 nM
C=CCN1CCC2(CC1)CN(C(=O)c1cccc3ccccc13)c1ccccc12 [Compound 133, 1′-(allyl)-1,2-dihydro-1-(naphthylene-1-carbonyl)-spiro[3H-indole-3,4′-piperidine]]	535 nM
C=CCN1CCC2(CC1)CN(C(=O)c1cc(OC)cc(OC)c1)c1ccc(F)cc12 [Compound 73, 1′-(allyl)-1,2-dihydro-5-fluoro-1-(3,5-dimethoxy-benzoyl)-spiro[3H-indole-3,4′-piperidine]]	867 nM
C=CCN1CCC2(CC1)CN(C(=O)c1ccc3c(c1)OCO3)c1ccc(F)cc12 [Compound 89, 1′-(allyl)-1,2-dihydro-5-fluoro-1-(benzo[1,3]dioxole-5-carbonyl)-spiro[3H-indole-3,4′-piperidine]]	989 nM
O=C(c1cccc(F)c1F)N1CC2(CCN(CC3CC3)CC2)c2cc(F)ccc21 [Compound 142, 1′-(cyclopropylmethyl)-1,2-dihydro-5-fluoro-1-(2,3-difluoro-benzoyl)-spiro[3H-indole-3,4′-piperidine]]	480 nM
C=CCN1CCC2(CC1)CN(C(=O)c1cccc(Cl)c1)c1ccc(F)cc12 [Compound 86, 1′-(allyl)-1,2-dihydro-5-fluoro-1-(3-chloro-benzoyl)-spiro[3H-indole-3,4′-piperidine]]	705 nM
C=CCN1CCC2(CC1)CN(C(=O)c1cccnc1SC)c1ccc(F)cc12 [Compound 215, 1′-(allyl)-1,2-dihydro-5-fluoro-1-(2-methylsulfanyl-pyridine-3-carbonyl)-spiro[3H-indole-3,4′-piperidine]]	607 nM
C=CCN1CCC2(CC1)CN(C(=O)c1cccc(C(Cl)Cl)c1)c1ccc(F)cc12 [Compound 92, 1′-(allyl)-1,2-dihydro-5-fluoro-1-(3-dichloromethyl-benzoyl)-spiro[3H-indole-3,4′-piperidine]]	592 nM
C=CCN1CCC2(CC1)CN(C(=O)c1ccc(Br)s1)c1ccc(F)cc12 [Compound 223, 1′-(allyl)-1,2-dihydro-5-fluoro-1-(5-bromo-thiophene-2-carbonyl)-spiro[3H-indole-3,4′-piperidine]]	307 nM

Compound	IC50
O=C(c1cccc(C(Cl)Cl)c1)N1CC2(CCN(CC3CC3)CC2)c2cc(F)ccc21 [Compound 147, 1′-(cyclopropylmethyl)-1,2-dihydro-5-fluoro-1-(3-dichloromethyl-benzoyl)-spiro[3H-indole-3,4′-piperidine]]	735 nM
C=CCN1CCC2(CC1)CN(C(=O)c1ccccc1Cl)c1ccc(F)cc12 [Compound 69, 1′-(allyl)-1,2-dihydro-5-fluoro-1-(2-chloro-benzoyl)-spiro[3H-indole-3,4′-piperidine]]	378 nM
C=CCN1CCC2(CC1)CN(C(=O)c1ccc(F)c(C(F)(F)F)c1)c1ccc(F)cc12 [Compound 88, 1′-(allyl)-1,2-dihydro-5-fluoro-1-(3-trifluoromethyl-4-fluoro-benzoyl)-spiro[3H-indole-3,4′-piperidine]]	896 nM
O=C(c1ccccc1Cl)N1CC2(CCN(CC3CC3)CC2)c2ccccc21 [Compound 101, 1′-(cyclopropylmethyl)-1,2-dihydro-1-(2-chloro-benzoyl)-spiro[3H-indole-3,4′-piperidine]]	792 nM
O=S(=O)(c1ccc(Cl)cc1Cl)N1CC2(CCN(CC3CC3)CC2)c2cc(F)ccc21 [Compound 192, 1′-(cyclopropylmethyl)-1,2-dihydro-5-fluoro-1-(2,4-dichloro-benzenesulfonyl)-spiro[3H-indole-3,4′-piperidine]]	891 nM
C=CCN1CCC2(CC1)CN(S(=O)(=O)c1ccccc1Cl)c1ccc(F)cc12 [Compound 206, 1′-(allyl)-1,2-dihydro-5-fluoro-1-(2-chloro-benzenesulfonyl)-spiro[3H-indole-3,4′-piperidine]]	303 nM
O=C1c2ccccc2-c2cccc(C(=O)N3CC4(CCN(CC5CC5)CC4)c4cc(F)ccc43)c21 [Compound 153, 1′-(cyclopropylmethyl)-1,2-dihydro-5-fluoro-1-(9-oxo-9H-fluorene-1-carbonyl)-spiro[3H-indole-3,4′-piperidine]]	774 nM
C=CCN1CCC2(CC1)CN(S(=O)(=O)c1ccc(Cl)cc1Cl)c1ccc(F)cc12 [Compound 185, 1′-(allyl)-1,2-dihydro-5-fluoro-1-(2,4-dichloro-benzenesulfonyl)-spiro[3H-indole-3,4′-piperidine]]	956 nM
O=C(c1ccccc1F)N1CC2(CCN(CC3CC3)CC2)c2cc(F)ccc21 [Compound 139, 1′-(cyclopropylmethyl)-1,2-dihydro-5-fluoro-1-(2-fluoro-benzoyl)-spiro[3H-indole-3,4′-piperidine]]	728 nM
C=CCN1CCC2(CC1)CN(C(=O)c1ccc(F)cc1F)c1ccc(F)cc12 [Compound 76, 1′-(allyl)-1,2-dihydro-5-fluoro-1-(2,4-difluoro-benzoyl)-spiro[3H-indole-3,4′-piperidine]]	936 nM
O=C(c1ccc2ccccc2c1)N1CC2(CCN(CC3CC3)CC2)c2cc(F)ccc21 [Compound 160, 1′-(cyclopropylmethyl)-1,2-dihydro-5-fluoro-1-(naphthylene-2-carbonyl)-spiro[3H-indole-3,4′-piperidine]]	721 nM
O=C(c1cccc(Cl)c1)N1CC2(CCN(CC3CC3)CC2)c2cc(F)ccc21 [Compound 165, 1′-(cyclopropylmethyl)-1,2-dihydro-5-fluoro-1-(3-chloro-benzoyl)-spiro[3H-indole-3,4′-piperidine]]	757 nM
COc1ccc(C(=O)N2CC3(CCN(CC4CC4)CC3)c3cc(F)ccc32)cc1 [Compound 31, 1′-(cyclopropylmethyl)-1,2-dihydro-5-fluoro-1-(4-methoxy-benzoyl)-spiro[3H-indole-3,4′-piperidine]]	900 nM
C=CCN1CCC2(CC1)CN(C(=O)c1ccccc1F)c1ccc(OC)cc12 [Compound 204, 1′-(allyl)-1,2-dihydro-5-methoxy-1-(2-fluoro-benzoyl)-spiro[3H-indole-3,4′-piperidine]]	554 nM
C=CCN1CCC2(CC1)CN(S(=O)(=O)c1ccccc1F)c1ccc(F)cc12 [Compound 229, 1′-(allyl)-1,2-dihydro-5-fluoro-1-(2-fluoro-benzenesulfonyl)-spiro[3H-indole-3,4′-piperidine]]	846 nM
